Data on 6 compounds can be found in PMC4521925, “17β-Hydroxysteroid Dehydrogenase Type 2 Inhibition: Discovery of Selective and Metabolically Stable Compounds Inhibiting Both the Human Enzyme and Its Murine Ortholog” (PLoS ONE, 2015).

One data set addresses T1, m17β-HSD2 (Mus musculus, UniProt P51658).
T1 construct: The microsomal fraction (m17β-HSD2) was obtained from mouse liver as described for h17β-HSD2; tissue Pharmacelsus GmbH (mouse livers); host or cells: mouse liver, microsomal fraction
T1 sequence (P51658 1-381): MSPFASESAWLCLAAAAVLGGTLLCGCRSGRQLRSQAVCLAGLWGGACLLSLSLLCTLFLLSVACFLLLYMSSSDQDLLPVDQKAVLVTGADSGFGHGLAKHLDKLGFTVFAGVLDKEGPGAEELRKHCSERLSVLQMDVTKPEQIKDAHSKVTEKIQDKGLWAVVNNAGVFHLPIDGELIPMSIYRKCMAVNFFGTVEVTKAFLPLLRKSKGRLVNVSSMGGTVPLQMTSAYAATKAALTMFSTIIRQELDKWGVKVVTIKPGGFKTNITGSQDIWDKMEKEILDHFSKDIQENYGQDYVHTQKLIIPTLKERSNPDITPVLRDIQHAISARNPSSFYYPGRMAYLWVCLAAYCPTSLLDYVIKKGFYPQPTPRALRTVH
Put plainly: Inhibition of m17β-HSD2 in cell-free assay. The settings on record: for % inh. at 1 μM m17β-HSD2: mouse liver microsomal fraction, substrate E2 [500 nM], cofactor NAD+ [1500 μM], Table 1. The data set is classed as biochemical. As to the method: (§1) h17β-HSD2, h17β-HSD1, m17β-HSD2 and m17β-HSD1 cell-free assays were performed similarly, by incubating enzyme, tritiated substrate, cofactor and inhibitor, according to described procedures.
The microsomal fraction (m17β-HSD2) was obtained from mouse liver as described for h17β-HSD2. Inhibitory activities were evaluated by a method identical to the one described for the human enzyme.
(§2) Inhibitory activities were evaluated following an established method with minor modifications. Briefly, the enzyme preparation was incubated with NAD^+ [1500 μM] in the presence of potential inhibitors at 37C in a phosphate buffer (50 mM) supplemented with 20% of glycerol and EDTA 1mM. Inhibitor stock solutions were prepared in DMSO. Final concentration of DMSO was adjusted to 1% in all samples. […] After 20 min, the incubation was stopped with HgCl2 and the mixture was extracted with ether. After evaporation, the steroids were dissolved in acetonitrile/water (45:55). […] Detection and quantification of the steroids were performed using a radioflow detector (Berthold Technologies, Bad Wildbad). […] Each value was calculated from at least two independent experiments.
A general note: Liver microsomes are vesicles of endoplasmic reticulum, rich in cytochrome P450 enzymes.

Data set [1] deals with T2, h17β-HSD2 (Homo sapiens, UniProt P37059).
T2 sequence (P37059 1-387): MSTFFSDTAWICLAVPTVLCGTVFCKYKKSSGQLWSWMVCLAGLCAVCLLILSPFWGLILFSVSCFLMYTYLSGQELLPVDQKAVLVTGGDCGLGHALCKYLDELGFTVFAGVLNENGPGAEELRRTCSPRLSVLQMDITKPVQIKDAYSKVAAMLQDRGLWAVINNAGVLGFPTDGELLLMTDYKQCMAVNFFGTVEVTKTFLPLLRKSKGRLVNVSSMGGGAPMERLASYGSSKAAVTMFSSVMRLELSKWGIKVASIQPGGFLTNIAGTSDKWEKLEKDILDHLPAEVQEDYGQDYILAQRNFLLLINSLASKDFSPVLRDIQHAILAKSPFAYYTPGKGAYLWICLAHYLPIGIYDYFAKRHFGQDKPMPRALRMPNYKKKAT
Further details: from tissue; host or cells: human placenta, microsomal fraction. The settings on record: human placental microsomal fraction, substrate E2 [500 nM], cofactor NAD+ [1500 μM]; previously described inhibitors; cited from earlier work.

Data set [2] addresses T2, h17β-HSD2. Put plainly: Inhibition of h17β-HSD2 in cell-free assay. The settings on record: for s.f. (selectivity factor) = IC50(17β-HSD1)/IC50(17β-HSD2): human enzymes, cell-free. Further details: from tissue; host or cells: human placenta, microsomal fraction. Type of data set: biochemical. As to the method: as §1
(§3) Cytosolic (h17β-HSD1) and microsomal (h17β-HSD2) fractions were obtained from human placenta according to previously described procedures. Fresh tissue was homogenized and the enzymes were separated from the mitochondria, cell membrane. Nucleus and other rests by fractional centrifugation at 1000 g, 10.000 g and 150.000 g. The pellet fraction containing the microsomal h17β-HSD2 was used for the determination of h17β-HSD2 inhibition, while h17β-HSD1 was obtained after precipitation with ammonium sulfate from the cytosolic fraction for use of testing of h17β-HSD1 inhibition. Aliquots containing h17β-HSD1 or h17β-HSD2 were stored frozen.
as §2

For the next data set, the target named is ERβ (Homo sapiens, UniProt Q92731). Put plainly: Estrogen receptor affinity in a cell-free assay (ERβ). The data set is classed as binding. The settings on record: 1000-fold excess relative to E2; recombinant human ERβ. How it is done: (§4) The binding affinity of selected compounds to ERα and ERβ was determined according to the recommendations of the US Environmental Protection Agency (EPA) by their Endocrine Disruptor Screening Program (EDSP)[24] using recombinant human proteins.
ERβ, sequence (Q92731 whole entry): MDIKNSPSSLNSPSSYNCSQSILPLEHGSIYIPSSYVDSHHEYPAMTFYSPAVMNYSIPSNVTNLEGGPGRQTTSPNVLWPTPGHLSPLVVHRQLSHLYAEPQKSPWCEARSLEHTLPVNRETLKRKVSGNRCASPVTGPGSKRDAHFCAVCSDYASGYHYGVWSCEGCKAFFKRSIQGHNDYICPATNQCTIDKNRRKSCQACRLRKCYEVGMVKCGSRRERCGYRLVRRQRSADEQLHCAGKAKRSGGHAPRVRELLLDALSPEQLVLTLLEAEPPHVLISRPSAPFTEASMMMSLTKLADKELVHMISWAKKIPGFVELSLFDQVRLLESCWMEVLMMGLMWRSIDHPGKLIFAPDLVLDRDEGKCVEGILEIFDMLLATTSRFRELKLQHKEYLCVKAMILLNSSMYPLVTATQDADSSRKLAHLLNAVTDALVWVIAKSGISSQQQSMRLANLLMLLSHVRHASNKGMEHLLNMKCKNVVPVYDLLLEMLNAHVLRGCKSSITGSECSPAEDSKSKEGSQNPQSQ
(§5) The potential inhibitors were dissolved in DMSO (5% final concentration). […] After incubation, ligand-receptor complexes were selectively bound to hydroxyapatite (83.5 g/LinTE-buffer). The bound complex was washed three times and resuspended in ethanol. For radiodetection, scintillator cocktail (Quickszint 212, Zinsser Analytic, Frankfurt) was added and samples were measured in a liquid scintillation counter (1450 LSC & Luminescence Counter, Perkin Elmer).
(§6) After the assay was established and validated, a modification was made to increase throughput.

Another data set concerns the target T3, h17β-HSD1 (Homo sapiens, UniProt P14061).
T3 construct: h17β-HSD1 was obtained after precipitation with ammonium sulfate from the cytosolic fraction; from tissue; host or cells: human placenta, cytosolic fraction
T3 sequence (P14061 1-328): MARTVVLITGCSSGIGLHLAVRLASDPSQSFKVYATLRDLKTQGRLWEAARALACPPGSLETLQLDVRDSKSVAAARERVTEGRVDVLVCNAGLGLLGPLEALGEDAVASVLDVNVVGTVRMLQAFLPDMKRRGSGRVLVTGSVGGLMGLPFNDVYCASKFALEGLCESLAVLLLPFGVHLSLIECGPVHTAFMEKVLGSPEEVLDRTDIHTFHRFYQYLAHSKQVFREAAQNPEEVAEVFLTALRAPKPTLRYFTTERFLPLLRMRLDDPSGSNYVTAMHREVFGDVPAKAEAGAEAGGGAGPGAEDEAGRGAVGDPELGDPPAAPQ
Put plainly: Inhibition of h17β-HSD1 in cell-free assay. The data set is classed as biochemical. The settings on record: human placental cytosolic fraction, substrate E1 [500 nM], cofactor NADH [500 μM]. How it is done: as §1, §3
The 17β-HSD1 inhibition assay was performed similarly to the h17β-HSD2 test. The human cytosolic enzyme was incubated with NADH [500 μM] while the mouse recombinant enzyme was reacted with NADPH [500 μM].Test compound and a mixture of unlabelled- and [^3H]-E1 (final concentration: 500 nM, 0.15 μCi) were added and mixed for 10 min at 37°C. Further treatment of the samples and HPLC separation was carried out as mentioned above for h17β-HSD2.

The target of another data set is T4, ERα (Homo sapiens, UniProt P03372).
T4 sequence (P03372 1-595): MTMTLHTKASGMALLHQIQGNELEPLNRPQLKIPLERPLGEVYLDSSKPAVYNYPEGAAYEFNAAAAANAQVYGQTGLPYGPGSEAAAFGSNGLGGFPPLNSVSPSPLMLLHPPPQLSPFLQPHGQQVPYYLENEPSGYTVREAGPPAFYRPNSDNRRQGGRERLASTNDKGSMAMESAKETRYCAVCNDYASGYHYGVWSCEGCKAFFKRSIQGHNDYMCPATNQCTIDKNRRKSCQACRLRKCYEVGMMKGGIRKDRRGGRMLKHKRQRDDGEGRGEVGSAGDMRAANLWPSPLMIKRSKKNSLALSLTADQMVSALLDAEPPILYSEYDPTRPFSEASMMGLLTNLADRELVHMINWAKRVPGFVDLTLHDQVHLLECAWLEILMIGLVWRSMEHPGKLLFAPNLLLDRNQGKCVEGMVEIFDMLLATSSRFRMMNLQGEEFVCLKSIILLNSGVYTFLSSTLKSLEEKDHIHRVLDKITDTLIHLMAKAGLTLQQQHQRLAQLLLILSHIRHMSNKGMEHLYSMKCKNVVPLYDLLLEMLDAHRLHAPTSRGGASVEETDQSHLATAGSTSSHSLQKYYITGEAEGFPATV
Put plainly: Estrogen receptor affinity in a cell-free assay (ERα). Type of data set: binding. The settings on record: 1000-fold excess relative to E2; recombinant human ERα. As to the method:
as §4, §5, §6

A short description of data set [3]: Metabolic stability in a cell-free assay (liver S9 fraction). The data set is classed as in vitro ADME. The settings on record: pooled liver S9 fraction; human liver S9 fraction 1 mg/ml, NADPH regenerating system, UDPGA, PAPS, 37°C; inhibitor 1 μM; read-out: Inhibitor t1/2. How it is done: Compounds 7a, 8a, 16a, 19a, 22a, 27a and 27 were tested according to established method[33–35]For evaluation of phase I and II metabolic stability 1 μM compound was incubated with 1 mg/ml pooled mammalian liver S9 fraction (BD Gentest), 2 mM NADPH regenerating system, 1 mM UDPGA and 0.1 mM PAPS at 37°C for 0, 5, 15 and 60 minutes at a final volume of 100 μL. The incubation was stopped by precipitation of S9 enzymes with 2 volumes of cold acetonitrile containing internal standard. Concentration of the remaining test compound at the different time points was analyzed by LC-MS/MS and used to determine half-life (t1/2).

The structures appear in SMILES notation. Like-named read-outs stand apart in the source and are kept apart here.

As usually defined, the IC50 is the concentration at which inhibition is half-maximal. `COc1cccc(N(C)C(=O)c2ccc(-c3cccc(N(C)C)c3)s2)c1` [Compound 1g]: the “% inh. at 1 μM m17β-HSD2” value at m17β-HSD2 is on record as 40%. Besides, the IC50 on h17β-HSD2 [1] was 170 nM.
Take `COc1cccc(N(C)C(=O)c2ccc(-c3cccc(OC)c3F)s2)c1` [Compound 1j]: the “% inh. at 1 μM m17β-HSD2” value on m17β-HSD2 stood at 26%. The IC50 at h17β-HSD2 [1] is 62 nM.
Regarding `COc1cccc(-c2cccc(C(=O)N(C)c3cccc(OC)c3)c2)c1` [Compound 4a], the “% inh. at 1 μM m17β-HSD2” value at m17β-HSD2 is reported as 25%. Also, the IC50 at h17β-HSD2 [1] was 520 nM.
In the case of `CN(Cc1cccc(O)c1)C(=O)c1cccc(-c2cccc(O)c2)c1` [Compound 4e], on m17β-HSD2, the “% inh. at 1 μM m17β-HSD2” value came out at 29%. For the same compound, on h17β-HSD2 [1], the IC50 was 640 nM.
A word on the melting point: it is the temperature, or range, at which the solid turns liquid. For the compound `COc1cccc(-c2ccc(C(=O)N(C)c3cccc(OC)c3)cc2)c1` [Compound 7a, 3'-Methoxy-N-(3-methoxyphenyl)-N-methyl-[1,1'-biphenyl]-4-carboxamide], the melting point was in the range of 131 to 134 °C. Also, the IC50 against m17β-HSD2 amounted to 290 nM. Also, at h17β-HSD2 [2], the IC50 amounted to 330 nM and the “s.f. (selectivity factor) = IC50(17β-HSD1)/IC50(17β-HSD2)” value turned out to be 20. Besides, the “displacement of E2 from ERβ” value at ERβ is on record as not above 20%. The same compound gave an IC50 at h17β-HSD1 of 6400 nM. Further, the “displacement of E2 from ERα” value on ERα was not above 20%.
For `COc1cccc(CN(C)C(=O)c2ccc(-c3cccc(C)c3F)cc2)c1` [Compound 25a, 2'-Fluoro-N-(3-methoxybenzyl)-N,3'-dimethyl-[1,1'-biphenyl]-4-carboxamide], the inhibition at 1 µM at m17β-HSD2 (read-out: % inh. at 1 μM m17β-HSD2) came to 43%. In addition, in data set [3], the half-life at 1 μM was found to be 1.72 h. Moreover, on h17β-HSD2 [2], the IC50 is 310 nM and the “s.f. (selectivity factor) = IC50(17β-HSD1)/IC50(17β-HSD2)” value was 283. Besides, the “displacement of E2 from ERβ” value on ERβ is not above 20%. The same compound returned an IC50 on h17β-HSD1 of 87000 nM. The “displacement of E2 from ERα” value on ERα was not above 20%.
